Biological target: Beta-2 adrenergic receptor (Rattus norvegicus) (UniProt P10608)
Assay: Inhibition of beta-2 adrenergic receptor isolated from rat lung homogenates

Sequence of Beta-2 adrenergic receptor (Rattus norvegicus) (P10608 whole entry, looked up): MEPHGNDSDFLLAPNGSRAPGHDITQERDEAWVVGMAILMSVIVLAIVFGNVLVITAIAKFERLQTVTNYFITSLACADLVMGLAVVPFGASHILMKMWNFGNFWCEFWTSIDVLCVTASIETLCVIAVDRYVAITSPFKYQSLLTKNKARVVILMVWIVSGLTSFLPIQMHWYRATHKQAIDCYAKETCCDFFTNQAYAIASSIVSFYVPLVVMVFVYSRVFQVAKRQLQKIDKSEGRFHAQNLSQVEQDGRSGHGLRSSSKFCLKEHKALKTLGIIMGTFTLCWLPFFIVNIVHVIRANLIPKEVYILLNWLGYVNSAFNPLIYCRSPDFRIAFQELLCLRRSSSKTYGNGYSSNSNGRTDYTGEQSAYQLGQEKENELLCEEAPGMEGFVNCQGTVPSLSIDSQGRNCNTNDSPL

Row | Compound | IC50 [µM]
1 | CCOC(=O)c1ccc(NCC(O)CON=C(C2CC2)C2CC2)cc1 (stereo unspecified) [4-(3-Dicyclopropylmethyleneaminooxy-2-hydroxy-propylamino)-benzoic acid ethyl ester] | > 10
2 | O=C(O)c1ccc(NCC(O)CON=C(C2CC2)C2CC2)cc1 (stereo unspecified) [4-(3-Dicyclopropylmethyleneaminooxy-2-hydroxy-propylamino)-benzoic acid] | > 10
3 | Cc1cccc(NCC(O)CON=C(C2CC2)C2CC2)c1 (stereo unspecified) [Dicyclopropyl-methanone O-(2-hydroxy-3-m-tolylamino-propyl)-oxime] | > 10
4 | Cc1ccccc1NCC(O)CON=C(C1CC1)C1CC1 (stereo unspecified) [Dicyclopropyl-methanone O-(2-hydroxy-3-o-tolylamino-propyl)-oxime] | > 10
5 | Cc1ccc(NCC(O)CON=C(C2CC2)C2CC2)cc1 (stereo unspecified) [Dicyclopropyl-methanone O-(2-hydroxy-3-p-tolylamino-propyl)-oxime] | > 10
6 | CC(C)(Cc1ccc(NCC(O)CON=C(C2CC2)C2CC2)cc1)NCC(O)CON=C(C1CC1)C1CC1 (stereo unspecified) [Dicyclopropyl-methanone O-(3-{2-[4-(3-dicyclopropylmethyleneaminooxy-2-hydroxy-propylamino)-phenyl]-1,1-dimethyl-ethylamino}-2-hydroxy-propyl)-oxime] | 1.5
7 | OC(CNc1ccccc1I)CON=C(C1CC1)C1CC1 (stereo unspecified) [Dicyclopropyl-methanone O-[2-hydroxy-3-(2-iodo-phenylamino)-propyl]-oxime] | > 10
8 | OC(CNc1cccc(I)c1)CON=C(C1CC1)C1CC1 (stereo unspecified) [Dicyclopropyl-methanone O-[2-hydroxy-3-(3-iodo-phenylamino)-propyl]-oxime] | > 10
9 | Oc1ccc(NCC(O)CON=C(C2CC2)C2CC2)cc1 (stereo unspecified) [Dicyclopropyl-methanone O-[2-hydroxy-3-(4-hydroxy-phenylamino)-propyl]-oxime] | > 10
10 | OC(CNc1ccc(I)cc1)CON=C(C1CC1)C1CC1 (stereo unspecified) [Dicyclopropyl-methanone O-[2-hydroxy-3-(4-iodo-phenylamino)-propyl]-oxime] | > 10
11 | Cc1ccnc(NCC(O)CON=C(C2CC2)C2CC2)c1 (stereo unspecified) [Dicyclopropyl-methanone O-[2-hydroxy-3-(4-methyl-pyridin-2-ylamino)-propyl]-oxime] | > 10
12 | O=[N+]([O-])c1ccc(NCC(O)CO[N-][C+](C2CC2)C2CC2)cc1 (stereo unspecified) [Dicyclopropyl-methanone O-[2-hydroxy-3-(4-nitro-phenylamino)-propyl]-oxime] | > 10
13 | OC(CNc1ccc(C(F)(F)F)cc1)CON=C(C1CC1)C1CC1 (stereo unspecified) [Dicyclopropyl-methanone O-[2-hydroxy-3-(4-trifluoromethyl-phenylamino)-propyl]-oxime] | > 10
14 | Cc1ccc(NCC(O)CON=C(C2CC2)C2CC2)nc1 (stereo unspecified) [Dicyclopropyl-methanone O-[2-hydroxy-3-(5-methyl-pyridin-2-ylamino)-propyl]-oxime] | > 10
15 | Cc1cccc(NCC(O)CON=C(C2CC2)C2CC2)n1 (stereo unspecified) [Dicyclopropyl-methanone O-[2-hydroxy-3-(6-methyl-pyridin-2-ylamino)-propyl]-oxime] | > 10
16 | CN(CC(O)CON=C(C1CC1)C1CC1)c1ccccc1 (stereo unspecified) [Dicyclopropyl-methanone O-[2-hydroxy-3-(methyl-phenyl-amino)-propyl]-oxime] | > 10

Row | Compound | IC50 [µM]
17 | OC(CNc1ccccn1)CON=C(C1CC1)C1CC1 (stereo unspecified) [Dicyclopropyl-methanone O-[2-hydroxy-3-(pyridin-2-ylamino)-propyl]-oxime] | > 10
18 | OC(CNc1ccncc1)CON=C(C1CC1)C1CC1 (stereo unspecified) [Dicyclopropyl-methanone O-[2-hydroxy-3-(pyridin-4-ylamino)-propyl]-oxime] | > 10
19 | OC(CNc1nc2ccccc2[nH]1)CON=C(C1CC1)C1CC1 (stereo unspecified) [Dicyclopropyl-methanone O-[3-(1H-benzoimidazol-2-ylamino)-2-hydroxy-propyl]-oxime] | > 10
20 | OC(CNc1ccc(Br)cc1)CON=C(C1CC1)C1CC1 (stereo unspecified) [Dicyclopropyl-methanone O-[3-(4-bromo-phenylamino)-2-hydroxy-propyl]-oxime] | > 10
21 | CCCCc1ccc(NCC(O)CON=C(C2CC2)C2CC2)cc1 (stereo unspecified) [Dicyclopropyl-methanone O-[3-(4-butyl-phenylamino)-2-hydroxy-propyl]-oxime] | > 10
22 | OC(CNc1ccc(Cl)cc1)CON=C(C1CC1)C1CC1 (stereo unspecified) [Dicyclopropyl-methanone O-[3-(4-chloro-phenylamino)-2-hydroxy-propyl]-oxime] | > 10
23 | OC(CNc1ccc(F)cc1)CON=C(C1CC1)C1CC1 (stereo unspecified) [Dicyclopropyl-methanone O-[3-(4-fluoro-phenylamino)-2-hydroxy-propyl]-oxime] | > 10
24 | CC(C)(C)c1ccc(NCC(O)CON=C(C2CC2)C2CC2)cc1 (stereo unspecified) [Dicyclopropyl-methanone O-[3-(4-tert-butyl-phenylamino)-2-hydroxy-propyl]-oxime] | > 10
25 | OC(CNc1nc2ccccc2s1)CON=C(C1CC1)C1CC1 (stereo unspecified) [Dicyclopropyl-methanone O-[3-(benzothiazol-2-ylamino)-2-hydroxy-propyl]-oxime] | > 10
26 | OC(CNc1ccccc1-c1ccccc1)CON=C(C1CC1)C1CC1 (stereo unspecified) [Dicyclopropyl-methanone O-[3-(biphenyl-2-ylamino)-2-hydroxy-propyl]-oxime] | > 10
27 | OC(CNc1ccc(-c2ccccc2)cc1)CON=C(C1CC1)C1CC1 (stereo unspecified) [Dicyclopropyl-methanone O-[3-(biphenyl-4-ylamino)-2-hydroxy-propyl]-oxime] | > 10
28 | CC(C)(Cc1ccc(NCC(O)CO[N-][C+](C2CC2)C2CC2)cc1)[N+](=O)[O-] (stereo unspecified) [Dicyclopropyl-methanone O-{2-hydroxy-3-[4-(2-methyl-2-nitro-propyl)-phenylamino]-propyl}-oxime] | > 10
29 | CC(C)(Cc1ccc(N)cc1)NCC(O)CON=C(C1CC1)C1CC1 (stereo unspecified) [Dicyclopropyl-methanone O-{3-[2-(4-amino-phenyl)-1,1-dimethyl-ethylamino]-2-hydroxy-propyl}-oxime] | 2
30 | CC(C)(N)Cc1ccc(NCC(O)CON=C(C2CC2)C2CC2)cc1 (stereo unspecified) [Dicyclopropyl-methanone O-{3-[4-(2-amino-2-methyl-propyl)-phenylamino]-2-hydroxy-propyl}-oxime] | > 10
31 | OC(CNc1ccccc1)CON=C(C1CC1)C1CC1 (stereo unspecified) [Dicyclopropylmethanone O-(3-anilino-2-hydroxypropyl)oxime] | > 10
